From patent US20060247320A1, “Compounds for inhibiting KSP kinesin activity” (priority 2005, published 2006)
Read-outs that look alike come from different tables or passages of the source.

Target: T1, KSP motor domain (Homo sapiens, UniProt P52732)
T1 sequence (P52732 18-359 limits assumed): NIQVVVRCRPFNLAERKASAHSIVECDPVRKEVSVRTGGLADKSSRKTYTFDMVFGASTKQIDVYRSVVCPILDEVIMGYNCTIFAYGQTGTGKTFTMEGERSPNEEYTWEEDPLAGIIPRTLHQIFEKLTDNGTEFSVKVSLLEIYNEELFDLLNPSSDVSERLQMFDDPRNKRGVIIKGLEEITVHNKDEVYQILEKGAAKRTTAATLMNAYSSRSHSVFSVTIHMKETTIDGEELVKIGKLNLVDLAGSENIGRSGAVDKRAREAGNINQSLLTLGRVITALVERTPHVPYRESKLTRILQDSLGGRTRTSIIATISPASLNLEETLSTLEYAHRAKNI
Assay: biochemical

[1] = KSP inhibitory activity, end-point assay, class symbols (Table 1), read-out: IC50
[2] = exact IC50 values, end-point assay (Table 2), read-out: IC50
[3] = IC50 (nM), KSP inhibitory activity, end-point assay, class symbols (Table 1)

| SMILES | IC50 [1] | further results |
| --- | --- | --- |
| CC(C)(C)[C@@H]1CCc2nc3sc(C(=O)N[C@H](CN)c4ccc(NC(=O)c5cocn5)cc4)cc3cc2C1 [Example 271] | < 100 nM |  |
| CC(C)(C)C1CCc2nc3sc(C(=O)N[C@H](CN)c4cccc(-c5ccncc5)c4)cc3cc2C1 (stereo partly drawn) [Example 212, 6-tert-butyl-5,6,7,8-tetrahydro-thieno[2,3-b]quinoline-2-carboxylic acid [(1S)-2-amino-1-(3-pyridin-4-yl-phenyl)-ethyl]-amide] | 100 to 1000 nM |  |
| CC(C)(C)C1CCc2nc3sc(S)nc3cc2C1 (centres unmarked) [Example 128, 7-tert-Butyl-5,6,7,8-tetrahydrothiazolo[5,4-b]quinoline-2-thiol] | 100 to 1000 nM |  |
| CC(C)(C)C1CCc2nc3sc(C(=O)N[C@H]4CCC[C@@H]4O)cc3cc2C1 (some centres unmarked) [Example 86] | 1000 to 10000 nM |  |
| COCc1cc2cc3c(nc2s1)CCC(C(C)(C)C)C3 (centres unmarked) [Example 146] | 1000 to 10000 nM |  |
| CC(C)(C)C1CCc2nc3sc(C(=O)N[C@H](CN)c4ccccc4)nc3cc2C1 (stereo partly drawn) [Example 225, 6-tert-butyl-5,6,7,8-tetrahydro-thiazolo[5,4-b]quinoline-2-carboxylic acid [2(S)-amino-1-phenyl-ethyl]-amide] | < 100 nM |  |
| CC(C)C(C)C1CCc2nc3sc(C#N)c(N)c3cc2C1 (centres unmarked) [Example 30] | 100 to 1000 nM |  |
| N#Cc1sc2nc3c(cc2c1N)CN(CCC(F)(F)F)CC3 [Example 57] | > 10000 nM |  |
| CC(C)(C)C1CCc2nc3sc(-c4ncc(CN)[nH]4)cc3cc2C1 (centres unmarked) [Example 184, [2-(6-tert-Butyl-5,6,7,8-tetrahydrothieno[2,3-b]quinolin-2-yl)-3H-imidazol-4-yl]methylamine] | 100 to 1000 nM |  |
| CC(C)(C)C1CCc2nc3sc(C(N)=O)nc3cc2C1 (centres unmarked) [Example 131, 7-tert-Butyl-5,6,7,8-tetrahydrothiazolo[5,4-b]quinoline-2-carboxylic acid amide] | 100 to 1000 nM |  |
| CC(C)(C)C1CCc2nc3sc(C(=O)NC(CO)C(N)=O)cc3cc2C1 (centres unmarked) [Example 100] | 100 to 1000 nM |  |
| CC(C)(C)C1CCc2nc3sc(CC(N)=O)cc3cc2C1 (centres unmarked) [Example 149] | 1000 to 10000 nM |  |
| Cc1cc(C(=O)Nc2cccc([C@@H](CN)NC(=O)c3cc4cc5c(nc4s3)CC[C@@H](C(C)(C)C)C5)c2)no1 [Example 229] | < 100 nM |  |
| CC(C)(C)C1CCc2nc3sc(C(=O)N[C@@H]4CCC[C@H]4O)cc3cc2C1 (some centres unmarked) [Example 85] | 1000 to 10000 nM |  |
| CC(C)(C)C1CCc2nc3sc(CO)cc3cc2C1 (centres unmarked) [Example 144] | < 100 nM | IC50 [2]: 60 nM |
| CCCC1CCc2nc3sc(C#N)c(N)c3cc2C1 (centres unmarked) [Example 15] | 1000 to 10000 nM |  |
| CC(C)(C)[C@@H]1CCc2nc3sc(C(=O)N[C@H](CN)c4cccc(NCc5ccccc5)c4)cc3cc2C1 [Example 283] | < 100 nM |  |
| CC(C)(C)C1CCc2nc3sc(C(=O)NN4CCOCC4)cc3cc2C1 (centres unmarked) [Example 200, 6-(1,1-Dimethylethyl)-5,6,7,8-Tetrahydro-N-(4-Morpholinyl)thieno[2,3-b]quinoline-2-Carboxamide] | 1000 to 10000 nM |  |
| Cc1[nH]ncc1C(=O)Nc1cccc([C@@H](CN)NC(=O)c2cc3cc4c(nc3s2)CC[C@@H](C(C)(C)C)C4)c1 [Example 243] | < 100 nM |  |
| N#Cc1sc2nc3c(cc2c1N)CCC(C(F)(F)F)C3 (centres unmarked) [Example 50] | > 10000 nM |  |
| CC(C)(C)[C@@H]1CCc2nc3sc(C(=O)N[C@H](CN)c4cccc(NC(=O)c5c[nH]cn5)c4)cc3cc2C1 [Example 248] | < 100 nM |  |
| CC(C)(C)C1CCc2nc3sc(C(N)=O)c(N)c3cc2C1 (centres unmarked) [Example 118, 3-Amino-6-tert-butyl-5,6,7,8-tetrahydrothieno[2,3-b]quinoline-2-carboxylic acid amide] | 1000 to 10000 nM |  |
| CCC(C)(C)C1Cc2cc3c(N)c(C#N)sc3nc2C1 (centres unmarked) [Example 38] | 1000 to 10000 nM |  |
| CCC(C1CCc2nc3sc(C#N)c(N)c3cc2C1)C(C)(C)C (centres unmarked) [Example 29] | > 10000 nM |  |
| CC(C)(C)C1CCc2nc3sc(C(=O)N[C@H](C#N)Cc4ccccc4)cc3cc2C1 (stereo partly drawn) [Example 163, 6-tert-Butyl-5,6,7,8-tetrahydrothieno[2,3-b]quinoline-2-carboxylic acid [(1S)-1-cyano-2-phenylethyl)amide] | > 10000 nM |  |
| CC(C)[C@H](NC(=O)c1cc2cc3c(nc2s1)CCC(C(C)(C)C)C3)C(=N)N (some centres unmarked) [Example 171] | 1000 to 10000 nM |  |
| CCOC(=O)c1sc2nc3c(cc2c1N)CC([Si](C)(C)C)CC3 (centres unmarked) [Example 187, Ethyl 3-Amino-5,6,7,8-Tetrahydro-6-(Trimethylsilyl)thieno[2,3-b]quinoline-2-Carboxylate] |  | IC50 [3]: > 10000 nM |
| CCOC(=O)c1cc2cc3c(nc2s1)CCC([Si](C)(C)C)C3 (centres unmarked) [Example 188, Ethyl 5,6,7,8-Tetrahydro-6-(Trimethylsilyl)thieno[2,3b]quinoline-2-Carboxylate] |  | IC50 [3]: > 10000 nM |

| SMILES | IC50 [1] | further results |
| --- | --- | --- |
| CC(C)(C)C1CCc2nc3sc(C(=O)NC(CN)c4ccc(C(N)=O)cc4)cc3cc2C1 (centres unmarked) [Example 224, 6-tert-butyl-5,6,7,8-tetrahydrothieno[2,3-b]quinoline-2-carboxylic acid [2-amino-1-(4-carbamoylphenyl)ethyl]amide] | < 100 nM |  |
| CC(C)(C)C1CCc2nc3sc(C(=O)Nc4ccc(N)nc4)cc3cc2C1 (centres unmarked) [Example 226J] | 100 to 1000 nM |  |
| CCC(CC)(CC)C1CCc2nc3sc(C#N)c(N)c3cc2C1 (centres unmarked) [Example 5] | 1000 to 10000 nM |  |
| C[C@@H]1CN(C(=O)Nc2cccc([C@@H](CN)NC(=O)c3cc4cc5c(nc4s3)CC[C@@H](C(C)(C)C)C5)c2)C[C@H](C)N1 [Example 279] | < 100 nM |  |
| CC(C)(C)C1CCc2nc3sc(C(=O)N[C@H](CN)c4ccsc4)cc3cc2C1 (stereo partly drawn) [Example 284, 6-tert-butyl-5,6,7,8-tetrahydro-thieno[2,3-b]quinoline-2-carboxylic acid (2-amino-1(S)-thiophen-3-yl-ethyl)-amide] | < 100 nM | IC50 [2]: 8 nM |
| CC(C)(C)C1CCc2nc3sc(C(=O)NCC(N)=O)cc3cc2C1 (centres unmarked) [Example 81] |  | IC50 (nM) (KSP inhibitory activity, end-point assay, class symbols (Table 1)): A/B; IC50 (number printed in brackets under a borderline class (A/B, B/C) in Table 1 of b1103, read-out: IC50): 100 nM |
| CC(C)(C)[C@@H]1CCc2nc3sc(C(=O)N[C@H](CNCCO)c4cccc(NC(=O)c5ncco5)c4)cc3cc2C1 [Example 265, 6-tert-Butyl-5,6,7,8-tetrahydrothieno[2,3-b]quinoline-2-carboxylic acid (2-(2-hydroxy-ethylamino)-1-{3-[(oxazole-2-carbonyl)amino]phenyl}ethyl)amide] | < 100 nM |  |
| CC(C)(C)[C@@H]1CCc2nc3sc(C(=O)N[C@H](CN)c4cccc(NC(=O)c5cc(-c6ccccc6)on5)c4)cc3cc2C1 [Example 234] | < 100 nM |  |
| CCCC1CCCc2cc3c(N)c(C#N)sc3nc21 (centres unmarked) [Example 52] | > 10000 nM |  |
| CC(C)(C)CC1CCc2nc3sc(C#N)c(N)c3cc2C1 (centres unmarked) [Example 25] | 100 to 1000 nM |  |
| CC(C)C(C(C)C)C1CCc2nc3sc(C#N)c(N)c3cc2C1 (centres unmarked) [Example 24] | 1000 to 10000 nM |  |
| COC(=O)[C@@H]1C[C@@H](O)CN1C(=O)c1cc2cc3c(nc2s1)CCC(C(C)(C)C)C3 (some centres unmarked) [Example 84] | 1000 to 10000 nM |  |
| C/C=C/C=C1\CCc2nc3sc(C#N)c(N)c3cc2C1 [Example 35] | > 10000 nM |  |
| CC(C)(C)C1CCc2nc3sc(C(=O)NC(CNCCO)c4cccc(NC(=O)c5ccco5)c4)cc3cc2C1 (centres unmarked) [Example 264, 6-tert-butyl-5,6,7,8-tetrahydrothieno[2,3-b]quinoline-2-carboxylic acid [1-{3-[(furan-2-carbonyl)amino]phenyl}-2-(2-hydroxyethylamino)ethyl]amide] | < 100 nM |  |
| CC1(C)CCc2nc3sc(C#N)c(N)c3cc2C1 [Example 47] | > 10000 nM |  |
| CC(C)(C)[C@@H]1CCc2nc3sc(C(=O)N[C@H](CN)c4cccc(NC(=O)c5ccno5)c4)cc3cc2C1 [Example 231, 6(R)-tert-butyl-5,6,7,8-tetrahydro-thieno[2,3-b]quinoline-2-carboxylic acid (2-amino-1(S)-{3-[(isoxazole-5-carbonyl)-amino]-phenyl}-ethyl)-amide] | < 100 nM |  |
| COC(=O)[C@H]1CCCCN1C(=O)c1cc2cc3c(nc2s1)CCC(C(C)(C)C)C3 (some centres unmarked) [Example 90] | > 10000 nM |  |
| CC(C)(C)C1CCc2nc3sc(C(=O)Nc4ccc(O)c(N)c4)cc3cc2C1 (centres unmarked) [Example 226H] | 100 to 1000 nM |  |
| CC(C)(C)C1CCc2nc3sc(C(=O)NCCCO)cc3cc2C1 (centres unmarked) [Example 102] | 100 to 1000 nM |  |
| CC(C)(C)C1CCc2nc3sc(CNCc4cc5cc6c(nc5s4)CCC(C(C)(C)C)C6)cc3cc2C1 (centres unmarked) [Example 150] | 1000 to 10000 nM |  |
| CC(C)(C)[C@@H]1CCc2nc3sc(C(=O)N[C@H](CN)c4cccc(NC(=O)c5nscc5N)c4)cc3cc2C1 [Example 254] | 100 to 1000 nM |  |
| CCC(C)(C)C1C=Cc2nc3sc(C(N)=O)cc3cc2C1 (centres unmarked) [Example 114] | < 100 nM |  |
| CC(CO)NC(=O)c1sc2nc3c(cc2c1N)CC(C(C)(C)C)CC3 (stereo in doubt) [Example 192, 3-Amino-6-(1,1-Dimethylethyl)-5,6,7,8-Tetrahydro-N-(2-Hydroxy-1(S)-Methylethyl)thieno[2,3-b]quinoline-2-Carboxamide] | 1000 to 10000 nM |  |
| CC(C)(C)C1CCc2nc3sc(C(=O)N[C@H](CN)c4ccc(N)cc4)cc3cc2C1 (some centres unmarked) [Example 218] | < 100 nM |  |
| CC(C)(C)[C@@H]1CCc2nc3sc(C(=O)N[C@H](CN)c4cccc(NC(=O)c5nccnc5N)c4)cc3cc2C1 [Example 261] | < 100 nM |  |
| CC(C)(C)C1CCCc2nc3sc(C(N)=O)cc3cc2C1 (centres unmarked) [Example 65] | < 100 nM | IC50 [2]: 62 nM |
| CC(C)(C)C1CCc2cc3c(N)c(C#N)sc3nc2CC1 (centres unmarked) [Example 41] | 1000 to 10000 nM |  |
